According to patent EP0422215B1, “ANTIBACTERIAL AND AN[…]” (THE ROCKEFELLER UNIVERSITY, priority 1989, dated 1990):

Assays:
Type in all cases: cell-based
B. subtilis Bsll = settings: overnight incubation at 30°C; for LETHAL CONCENTRATION Bsll + ME: B. subtilis, plates prepared with medium E; for LETHAL CONCENTRATION Bsll: Bsll = B. subtilis, thin agarose plates
Experimental: (§1) The products of the invention were tested for activity against a variety of test organisms selected to represent a number of different types of pathogens some of them known to be particularly virulent by the inhibition zone assay of Hoffmann et al. (1981) Insect Biochem. 11 537-548. Thin agar or agarose plates (8.5 cm diameter) were prepared with 6 ml of rich medium containing 100 µg/ml of streptomycin and 2 x 10^5 viable cells of a test organism resistant to streptomycin. Wells of […] were punched in the plates and 3 µl of serially diluted samples were placed in the wells. The diameters of the zones of inhibition around the wells were measured after overnight incubation at 30° or 37°C. For each peptide the squares of the zone diameters were plotted against the logarithm of the concentration, and from the slopes and intercepts the lethal concentrations were calculated as described by Hultmark (1983) EMBO J. 2, 571-76 or Hultmark et al. (1982) Eur. J. Biochem. 127 207-217.
(§2) Novel peptides CA(1-8)M(1-18), CA(1-9)M(1-17), CB(1-13)M(1-13), CA(1-17)M(1-9), CA(1-18)M(1-8), M(1-13)CA(1-22) and M(1-13)CA(1-13) were prepared as described above (see Examples 1-6). These novel peptides and CA, CB, and M were tested for activity against a variety of organisms selected to represent a number of different types of pathogens, some of them known to be particularly virulent, by the inhibition zone assay of Hoffmann et al. (1981), Insect Biochem. 11 537-48. As in Examples 1-6, thin agarose plates were prepared with the respective organisms. The diameters of the zones of inhibition were measured after overnight incubation at 30°C. The lethal concentrations were determined as described above (see Examples 1-6; Hultmark et al. articles cited thereat).

E. coli D21 = settings: thin agarose plates, overnight incubation at 30°C
Experimental: as §1, §2

P. aeruginosa OT97 = settings: thin agarose plates, overnight incubation at 30°C
Experimental: as §1, §2

S. aureus Cowan I = settings: thin agarose plates, 30°C, * indicates flat concentration dependence
Experimental: as §1, §2

S. pyogenes = settings: thin agarose plates, overnight incubation at 30°C
Experimental: as §1, §2

Sheep Red Cells = assay: lysis of sheep red blood cells (lysis assay or inhibition zone plate assay with SRC); settings: SRC = Sheep Red Cells; ? indicates turbid zone (melittin gives clear zone)
Experimental: These values were obtained by either the lysis assay normally used for melittin or by an adaptation of the antibacterial inhibition zone assay of the above-cited Hultmark et al. articles to plates with sheep red cells (SRC). With respect to the latter, sterile agarose plates contained 6 ml of medium with 1% agarose, 0.9% NaCl and 10% SRC suspended in Alsevers solution. A dilution series of peptide was applied in 3mm wells each loaded with 3 µl of the respective samples. The plates were incubated at 30°C for 24 h, the zones were recorded and LC values calculated as described in the Hultmark et al. articles. Clear zones were recorded after a few hours of incubation and the use of such data gave an LC value of the same order as readings after 24 h. This plate assay is faster and more convenient than the lysis assay normally used for melittin.

[1] = test system: Plasmodium falciparum strain F32 (Tanzania); assay: inhibition of reinvasion of human red cells by blood stream forms of the malaria parasite; settings: result in words, read from Figure 1
Experimental: The blood stream forms of the malaria parasite Plasmodium falciparum, primarily late trophozoites and early schizonts, were assayed by recording the inhibition of the reinvasion of human red cells by the method of Wahlin, B., et al, (1984) Proc. Natl. Acad. Sci. USA 81, 7912-16. Quadruplicate microcultures of strain F32 (Tanzania) were incubated for 20 hrs at 37°C in a complete tissue culture medium, with or without different concentrations of the peptides to be assayed. After acridine orange staining, the percentage of newly infected red cells was scored in a fluorescence microscope. For each culture 40,000 red cells were analysed for parasitic infection. Duplicate assays were run for CA(1-13)M(1-13).

## CC[C@H](C)[C@H](NC(=O)[C@H](CC(C)C)NC(=O)[C@H](C)NC(=O)[C@@H]1CCCN1C(=O)[C@H](CC(C)C)NC(=O)CNC(=O)[C@@H](NC(=O)[C@@H](NC(=O)[C@H](CC(C)C)NC(=O)[C@@H](NC(=O)[C@H](CCCCN)NC(=O)[C@H](CC(C)C)NC(=O)[C@@H](NC(=O)[C@H](C)NC(=O)CNC(=O)[C@@H](NC(=O)CNC(=O)[C@H](CCC(=O)O)NC(=O)[C@@H](NC(=O)[C@H](CCCCN)NC(=O)[C@H](CCCCN)NC(=O)[C@H](Cc1ccccc1)NC(=O)[C@H](CC(C)C)NC(=O)[C@H](CCCCN)NC(=O)[C@H](Cc1c[nH]c2ccccc12)NC(=O)[C@@H](N)CCCCN)[C@@H](C)CC)[C@@H](C)CC)C(C)C)C(C)C)[C@@H](C)O)[C@@H](C)O)C(N)=O [CA(1-9)M(1-17)]
B. subtilis Bsll
  LETHAL CONCENTRATION Bsll + ME: 0.9 µM
  LETHAL CONCENTRATION Bsll: 0.7 µM
E. coli D21
  LETHAL CONCENTRATION D21: 0.3 µM
P. aeruginosa OT97
  LETHAL CONCENTRATION OT97: 1 µM
S. aureus Cowan I
  LETHAL CONCENTRATION Staph: 6 µM
S. pyogenes
  LETHAL CONCENTRATION Strep: 0.3 µM
Sheep Red Cells
  LETHAL CONCENTRATION SRC: >600 µM

## H-KWKVFKKIEKMGRNIRNGIVKAGPAIAVLGEAKAL-NH2 [CB(1-35), reference compound]
E. coli D21
  LETHAL CONCENTRATION D21: 0.3 µM
P. aeruginosa OT97
  LETHAL CONCENTRATION OT97: 1 µM
S. aureus Cowan I
  LETHAL CONCENTRATION Staph: >200 µM
S. pyogenes
  LETHAL CONCENTRATION Strep: 12 µM
[1]
  activity against Plasmodium falciparum (inhibition of reinvasion, Figure 1): about as potent as Mag

## CC[C@H](C)[C@H](NC(=O)CNC(=O)[C@H](CCCNC(=N)N)NC(=O)CNC(=O)[C@H](CCSC)NC(=O)[C@H](CCCCN)NC(=O)[C@H](CCC(=O)O)NC(=O)[C@@H](NC(=O)[C@H](CCCCN)NC(=O)[C@H](CCCCN)NC(=O)[C@H](Cc1ccccc1)NC(=O)[C@@H](NC(=O)[C@H](CCCCN)NC(=O)[C@H](Cc1c[nH]c2ccccc12)NC(=O)[C@@H](N)CCCCN)C(C)C)[C@@H](C)CC)C(=O)NCC(=O)N[C@@H](C)C(=O)N[C@H](C(=O)N[C@@H](CC(C)C)C(=O)N[C@@H](CCCCN)C(=O)N[C@H](C(=O)N[C@@H](CC(C)C)C(=O)N[C@H](C(=O)N[C@H](C(=O)NCC(=O)N[C@@H](CC(C)C)C(N)=O)[C@@H](C)O)[C@@H](C)O)C(C)C)C(C)C [CB(1-13)M(1-13)]
B. subtilis Bsll
  LETHAL CONCENTRATION Bsll + ME: 0.4 µM
  LETHAL CONCENTRATION Bsll: 0.4 µM
E. coli D21
  LETHAL CONCENTRATION D21: 0.3 µM
P. aeruginosa OT97
  LETHAL CONCENTRATION OT97: 1 µM
S. aureus Cowan I
  LETHAL CONCENTRATION Staph: 4 µM
S. pyogenes
  LETHAL CONCENTRATION Strep: 1 µM
Sheep Red Cells
  LETHAL CONCENTRATION SRC: >400 µM

## H-KWKLFKKIEKVGQNIRDGIIKAGPAVAVVGQATQIAK-NH2 [CA(1-37), reference compound]
B. subtilis Bsll
  LETHAL CONCENTRATION Bsll + ME: 200 µM
  LETHAL CONCENTRATION Bsll: 4 µM
E. coli D21
  LETHAL CONCENTRATION D21: 0.2 µM
P. aeruginosa OT97
  LETHAL CONCENTRATION OT97: 2 µM
S. aureus Cowan I
  LETHAL CONCENTRATION Staph: >200 µM
S. pyogenes
  LETHAL CONCENTRATION Strep: 4 µM
Sheep Red Cells
  LETHAL CONCENTRATION SRC: >200 µM
[1]
  activity against Plasmodium falciparum (inhibition of reinvasion, Figure 1): only negligible activity
